Test results: US12215363B2, “Balanced indels” (Keygene N.V., priority 2017, dated 2025)

B1: KG10240: cassette (SEQ ID NO. 28) expressing all sgRNAs of KG10177, KG10190 and KG10191 separated by tRNA sequences (nucleic acid)
DNA: GGAGTGATCAAAAGTCCCACATCGATCAGGTGATATATAGCAGCTTAGTTTATATAATGATAGAGTCGACATAGCGATTGAACAAAGCACCAGTGGTCTAGTGGTAGAATAGTACCCTGCCACGGTACAGACCCGGGTTCGATTCCCGGCTGGTGCACAAGTGCCGAGGAGGATGATGTTTTAGAGCTAGAAATAGCAAGTTAAAATAAGGCTAGTCCGTTATCAACTTGAAAAAGTGGCACCGAGTCGGTGCAACAAAGCACCAGTGGTCTAGTGGTAGAATAGTACCCTGCCACGGTACAGACCCGGGTTCGATTCCCGGCTGGTGCACATCCTCCTCGGCACTTGACGTTTTAGAGCTAGAAATAGCAAGTTAAAATAAGGCTAGTCCGTTATCAACTTGAAAAAGTGGCACCGAGTCGGTGCAACAAAGCACCAGTGGTCTAGTGGTAGAATAGTACCCTGCCACGGTACAGACCCGGGTTCGATTCCCGGCTGGTGCATTACCGGTCAAGTGCCGAGGGTTTTAGAGCTAGAAATAGCAAGTTAAAATAAGGCTAGTCCGTTATCAACTTGAAAAAGTGGCACCGAGTCGGTGCTTTTTTTCTAGACCCAGCTTTCTTGTACAAAGTTGGCATTACGCT
modifications: KG10240

Legend:
[1] = tested on: tomato protoplasts; experiment: Recovery of chlorsulfuron resistant calli after transfection of tomato protoplasts; type: cell-based, Solanum lycopersicon var Moneyberg; details: ALS1/ALS2 alleles sequenced from chlorsulfuron resistant calli versus alleles seen only in protoplast sequence data
Description: (§1) For the protoplast transfections 10 μg of KG9387 and 20 μg of one of the sgRNA expressing plasmids (KG10177, KG10190, KG10191, KG10240) mixed with 500 μL (500000 protoplasts) of the protoplast suspension and 500 μL of PEG solution (400 g/l poly(ethylene glycol) 4000, Sigma-Aldrich #81240; 0.1M Ca(NO3)2) was then added and the transfection was allowed to take place for 20 minutes at room temperature. Control samples were also produced by omitting one or both of the plasmids from the transfection. Then, 10 mL of 0.275 M Ca(NO3)2 solution was added and thoroughly, but gently mixed in. The protoplasts were harvested by centrifugation for 5 minutes at 800 rpm and resuspended in 9M culture medium at a density of 0.5×10^6 per ml and transferred to a 4 cm diameter petri dish and an equal volume of 2% alginate solution (20 g/l Alginate-Na (Sigma-Aldrich #A0682), 0.14 g/l CaCl2.2H2O, 90 g/l mannitol) was added. […]
(§2) Total genomic DNA was isolated from tomato protoplasts (48 hrs post transfection) using the DNeasy Plant Mini Kit (Qiagen). […] After sequencing the reads derived from each sample were processed to identify the number and types of sequence changes present at the target site. […]

[2] = tested on: ALS1/ALS2 target sequence; experiment: Indel formation at the ALS1/ALS2 target sites in transfected tomato protoplasts (amplicon sequencing, MiSeq); type: cell-based, Solanum lycopersicon var Moneyberg; details: genomic DNA 48 hours after transfection
Description: as §1, §2

Row | Molecule | Chlorsulfuron resistance phenotype of the altered ALS allele (in words) [1] | Sequence reads with indels at ALS1 and ALS2 target sites (in words) [2]
1 | GQVPGGLMIGT: ALS amino acid change from other pairs of indels in the sequence data, not recovered in resistant calli | not resistance alleles | –
2 | GRRGGLIGT: ALS amino acid change from other pairs of indels in the sequence data, not recovered in resistant calli | not resistance alleles | –
3 | B1 | – | resulted in reads that contained more than one indel
